Measured values from the NIST ThermoML archive (doi:10.1021/je500513b).
± gives the expanded uncertainty stated by the source.

Assay: mn = molality of the nth substance listed, in mol/kg
Details: 100 kPa, Liquid, Mettler Toledo inLab 710

CCCCCCCCCCCC[N+](C)(C)CCC[N+](C)(C)CCCCCCCCCCCC.[Br-].[Br-] + O
electrical conductivity (308.15 K, m1 = 0.00134): 0.0257 ± 0.0003 S/m | electrical conductivity (308.15 K, m1 = 0.00143): 0.0264 ± 0.0003 S/m | electrical conductivity (308.15 K, m1 = 0.00154): 0.027 ± 0.0003 S/m | electrical conductivity (308.15 K, m1 = 0.00163): 0.0277 ± 0.0003 S/m | electrical conductivity (308.15 K, m1 = 0.0017): 0.028 ± 0.0003 S/m | electrical conductivity (308.15 K, m1 = 0.00178): 0.0285 ± 0.0003 S/m | electrical conductivity (308.15 K, m1 = 0.00186): 0.0291 ± 0.0003 S/m | electrical conductivity (308.15 K, m1 = 0.002): 0.0301 ± 0.0004 S/m | electrical conductivity (313.15 K, m1 = 0.00057): 0.0152 ± 0.0008 S/m | electrical conductivity (313.15 K, m1 = 0.00061): 0.0168 ± 0.0007 S/m | electrical conductivity (313.15 K, m1 = 0.00064): 0.0176 ± 0.0006 S/m | electrical conductivity (313.15 K, m1 = 0.00067): 0.0186 ± 0.0007 S/m | electrical conductivity (313.15 K, m1 = 0.0007): 0.0197 ± 0.0006 S/m | electrical conductivity (313.15 K, m1 = 0.00074): 0.0207 ± 0.0005 S/m | electrical conductivity (313.15 K, m1 = 0.00079): 0.0217 ± 0.0005 S/m | electrical conductivity (313.15 K, m1 = 0.00083): 0.0229 ± 0.0006 S/m | electrical conductivity (313.15 K, m1 = 0.00087): 0.0237 ± 0.0005 S/m | electrical conductivity (313.15 K, m1 = 0.00091): 0.0245 ± 0.0005 S/m | electrical conductivity (313.15 K, m1 = 0.00095): 0.0254 ± 0.0005 S/m | electrical conductivity (313.15 K, m1 = 0.001): 0.0262 ± 0.0004 S/m | electrical conductivity (313.15 K, m1 = 0.00105): 0.027 ± 0.0004 S/m | electrical conductivity (313.15 K, m1 = 0.00111): 0.0277 ± 0.0004 S/m | electrical conductivity (313.15 K, m1 = 0.00118): 0.0285 ± 0.0004 S/m | electrical conductivity (313.15 K, m1 = 0.00125): 0.0293 ± 0.0004 S/m | electrical conductivity (313.15 K, m1 = 0.00134): 0.0301 ± 0.0004 S/m | electrical conductivity (313.15 K, m1 = 0.00143): 0.031 ± 0.0004 S/m | electrical conductivity (313.15 K, m1 = 0.00154): 0.0319 ± 0.0004 S/m | electrical conductivity (313.15 K, m1 = 0.00167): 0.0327 ± 0.0003 S/m | electrical conductivity (313.15 K, m1 = 0.00174): 0.0331 ± 0.0004 S/m | electrical conductivity (313.15 K, m1 = 0.00182): 0.0336 ± 0.0004 S/m | electrical conductivity (313.15 K, m1 = 0.00191): 0.0343 ± 0.0004 S/m | electrical conductivity (313.15 K, m1 = 0.002): 0.0349 ± 0.0004 S/m | electrical conductivity (318.15 K, m1 = 0.00057): 0.0174 ± 0.0007 S/m | electrical conductivity (318.15 K, m1 = 0.00061): 0.0186 ± 0.0008 S/m | electrical conductivity (318.15 K, m1 = 0.00064): 0.0199 ± 0.0008 S/m | electrical conductivity (318.15 K, m1 = 0.00067): 0.0209 ± 0.0007 S/m | electrical conductivity (318.15 K, m1 = 0.0007): 0.0219 ± 0.0007 S/m | electrical conductivity (318.15 K, m1 = 0.00074): 0.0231 ± 0.0006 S/m | electrical conductivity (318.15 K, m1 = 0.00079): 0.0245 ± 0.0005 S/m | electrical conductivity (318.15 K, m1 = 0.00083): 0.0253 ± 0.0005 S/m | electrical conductivity (318.15 K, m1 = 0.00087): 0.0262 ± 0.0005 S/m | electrical conductivity (318.15 K, m1 = 0.00091): 0.0271 ± 0.0005 S/m | electrical conductivity (318.15 K, m1 = 0.00095): 0.028 ± 0.0005 S/m | electrical conductivity (318.15 K, m1 = 0.001): 0.0289 ± 0.0005 S/m | electrical conductivity (318.15 K, m1 = 0.00105): 0.0299 ± 0.0005 S/m | electrical conductivity (318.15 K, m1 = 0.00111): 0.0308 ± 0.0004 S/m | electrical conductivity (318.15 K, m1 = 0.00118): 0.0318 ± 0.0004 S/m | electrical conductivity (318.15 K, m1 = 0.00125): 0.0327 ± 0.0004 S/m | electrical conductivity (318.15 K, m1 = 0.00134): 0.0335 ± 0.0004 S/m | electrical conductivity (318.15 K, m1 = 0.00143): 0.0347 ± 0.0004 S/m | electrical conductivity (318.15 K, m1 = 0.00154): 0.0357 ± 0.0004 S/m | electrical conductivity (318.15 K, m1 = 0.00167): 0.037 ± 0.0004 S/m | electrical conductivity (318.15 K, m1 = 0.00174): 0.0376 ± 0.0004 S/m | electrical conductivity (318.15 K, m1 = 0.00182): 0.0383 ± 0.0004 S/m | electrical conductivity (318.15 K, m1 = 0.00191): 0.039 ± 0.0004 S/m | electrical conductivity (318.15 K, m1 = 0.002): 0.0399 ± 0.0005 S/m | electrical conductivity (323.15 K, m1 = 0.00059): 0.0191 ± 0.0006 S/m | electrical conductivity (323.15 K, m1 = 0.00063): 0.0203 ± 0.0007 S/m | electrical conductivity (323.15 K, m1 = 0.00067): 0.0218 ± 0.0008 S/m | electrical conductivity (323.15 K, m1 = 0.0007): 0.0229 ± 0.0007 S/m | electrical conductivity (323.15 K, m1 = 0.00074): 0.0241 ± 0.0006 S/m | electrical conductivity (323.15 K, m1 = 0.00079): 0.0256 ± 0.0007 S/m | electrical conductivity (323.15 K, m1 = 0.00083): 0.0272 ± 0.0007 S/m | electrical conductivity (323.15 K, m1 = 0.00087): 0.0282 ± 0.0006 S/m | electrical conductivity (323.15 K, m1 = 0.00091): 0.0293 ± 0.0006 S/m | electrical conductivity (323.15 K, m1 = 0.00095): 0.0305 ± 0.0007 S/m | electrical conductivity (323.15 K, m1 = 0.001): 0.0319 ± 0.0007 S/m | electrical conductivity (323.15 K, m1 = 0.00105): 0.0334 ± 0.0006 S/m | electrical conductivity (323.15 K, m1 = 0.00111): 0.0349 ± 0.0005 S/m | electrical conductivity (323.15 K, m1 = 0.00118): 0.036 ± 0.0005 S/m | electrical conductivity (323.15 K, m1 = 0.00125): 0.0374 ± 0.0005 S/m | electrical conductivity (323.15 K, m1 = 0.00134): 0.0384 ± 0.0004 S/m | electrical conductivity (323.15 K, m1 = 0.00143): 0.0394 ± 0.0004 S/m | electrical conductivity (323.15 K, m1 = 0.00154): 0.0404 ± 0.0005 S/m | electrical conductivity (323.15 K, m1 = 0.0016): 0.0413 ± 0.0005 S/m | electrical conductivity (323.15 K, m1 = 0.00167): 0.042 ± 0.0005 S/m | electrical conductivity (323.15 K, m1 = 0.00174): 0.0427 ± 0.0005 S/m | electrical conductivity (323.15 K, m1 = 0.00182): 0.0434 ± 0.0005 S/m | electrical conductivity (323.15 K, m1 = 0.00191): 0.044 ± 0.0005 S/m | electrical conductivity (323.15 K, m1 = 0.002): 0.0451 ± 0.0005 S/m
